Results on one compound are retold here after article PMC10458458, “Characterization of Anticancer Effects of the Analogs of DJ4, a Novel Selective Inhibitor of ROCK and MRCK Kinases” (Pharmaceuticals, 2023).

One assay deals with A549 lung cancer cells. In words: Cell cycle analysis (propidium iodide, flow cytometry). It counts as cell-based, human. Particulars: A549, serum-starved, 24 h (vehicle 1%). The protocol: Since DJ4 inhibits phosphorylation of MLC, we hypothesized that DJ4-treated cells are unable to complete cell division and arrest in G2/M phase of the cell cycle. To test this hypothesis, A549 lung cancer cells were synchronized in the G1 phase by serum-starvation for 24 h. After serum replenishment, cells were further treated with 2.5 µM, 5 µM, and 10 µM DJ-4 for 16-, 24-, and 48 h (Figure 3A). Before treatment with DJ4 (time zero), about 80% of cells were in the G1 phase, 20% in the G2/M phase, and essentially none in the S phase. In vehicle treated control cells, there were minimal cells in the G2/M phase at both 24 h (1%) and 48 h (8%). […] At 48 h, cells remained arrested in the G2/M phase, but also, there was an increase in the sub-G1 cell population indicating apoptotic cells.
Figure 3 DJ4 arrests A549 lung cancer cells in G2/M phase and induces apoptotic cell death in NSCLC and breast cancer cells. (A). A549 cells were serum-starved for 24 h and treated for 16 h, 24 h, and 48 h with indicated concentrations. Propidium iodide stained cells were analyzed for DNA content by flow cytometry. The cell cycle graphs indicate distribution of cells in the G1, S, and G2/M phases of cell cycle. Sub-G1 cell population indicates apoptotic cells. (B). Annexin V staining of A549 cells. The cells were treated with indicated concentrations and durations. Percent annexin V + cells were analyzed using Muse^TM cell analyzer. Error bars indicate SEM. n = 2. (C). Analysis of annexin V + ve and mitochondrial membrane depolarized cells. MDA-MB-231 cells were treated for 48 h at the indicated concentrations. Staurosporin (2.5 µM) was used as a positive control. Error bars indicate SEM. n = 2. * p < 0.05. […] These are best readings and their digits are not certain: DMSO 7 and 14; DJ4 1.25 μM 10 and 22; DJ4 2.5 μM 23 and 40; Staurosporin 12 and 40 / Panel B, 24 h: the ** is read as belonging to the 5 μM bar (10), not the 2.5 μM bar (8); this is not fully certain […]

The target in the next assay is ROCK1 (Homo sapiens, UniProt Q13464). Kind of assay: KINOMEscan competition binding assay. Also on record: purchased DiscoverX Corporation (Lead Hunter Discovery Services, KINOMEscan). The conditions noted are these: ROCK1, 10 µM. From the text:
(§1) To examine specificity of DJ4 to different human kinases, we performed a KINOMEscan profiling assay (DiscoverX, Fremont, CA, USA). The KINOMEscan assay consists of a panel of more than 480 kinases of different classes (TK/TKL/STE/CK1/AGC/CAMK/CMGC/others), including clinically relevant mutants, atypical kinases, lipid, and pathogen kinases. […] However, we also recognized the limitations of DJ4 that preclude its clinical development and the need for further optimization of the DJ4 chemotype.
(§2) The KINOMEscan®, in vitro competition binding assay, was performed by Lead Hunter Discovery Services (DiscoverX Corporation, Fremont, CA, USA) to determine the kinase specificity of DJ4, a novel kinase inhibitor [19, 44]. The KINOMEscan® panel consists of more than 480 kinases, including clinically relevant mutants, lipid, atypical, and pathogen kinases, plus a growing panel of activation-state specific assays. The primary screen was performed using a single concentration of 10 µM, and the results for DJ4 binding interactions are reported as percent of control (%Ctrl). The %Ctrl is calculated as follows: [(DJ4 signal-positive control signal)/(negative control DMSO signal-positive control signal)] x […]. The human kinome tree annotation for DJ4 is plotted with Reaction Biology’s Kinase Mapper and KinMap web interface tool http://kinhub.org/kinmap (accessed on 09 January 2023).

The next assay deals with ROCK2 (Homo sapiens, UniProt O75116). In words: KINOMEscan competition binding assay. Details: purchased DiscoverX Corporation (Lead Hunter Discovery Services, KINOMEscan). Particulars: ROCK2, 10 µM.
Description: as §1, §2

Bounds are passed on as bounds.

ROCK2, sequence (O75116 whole entry): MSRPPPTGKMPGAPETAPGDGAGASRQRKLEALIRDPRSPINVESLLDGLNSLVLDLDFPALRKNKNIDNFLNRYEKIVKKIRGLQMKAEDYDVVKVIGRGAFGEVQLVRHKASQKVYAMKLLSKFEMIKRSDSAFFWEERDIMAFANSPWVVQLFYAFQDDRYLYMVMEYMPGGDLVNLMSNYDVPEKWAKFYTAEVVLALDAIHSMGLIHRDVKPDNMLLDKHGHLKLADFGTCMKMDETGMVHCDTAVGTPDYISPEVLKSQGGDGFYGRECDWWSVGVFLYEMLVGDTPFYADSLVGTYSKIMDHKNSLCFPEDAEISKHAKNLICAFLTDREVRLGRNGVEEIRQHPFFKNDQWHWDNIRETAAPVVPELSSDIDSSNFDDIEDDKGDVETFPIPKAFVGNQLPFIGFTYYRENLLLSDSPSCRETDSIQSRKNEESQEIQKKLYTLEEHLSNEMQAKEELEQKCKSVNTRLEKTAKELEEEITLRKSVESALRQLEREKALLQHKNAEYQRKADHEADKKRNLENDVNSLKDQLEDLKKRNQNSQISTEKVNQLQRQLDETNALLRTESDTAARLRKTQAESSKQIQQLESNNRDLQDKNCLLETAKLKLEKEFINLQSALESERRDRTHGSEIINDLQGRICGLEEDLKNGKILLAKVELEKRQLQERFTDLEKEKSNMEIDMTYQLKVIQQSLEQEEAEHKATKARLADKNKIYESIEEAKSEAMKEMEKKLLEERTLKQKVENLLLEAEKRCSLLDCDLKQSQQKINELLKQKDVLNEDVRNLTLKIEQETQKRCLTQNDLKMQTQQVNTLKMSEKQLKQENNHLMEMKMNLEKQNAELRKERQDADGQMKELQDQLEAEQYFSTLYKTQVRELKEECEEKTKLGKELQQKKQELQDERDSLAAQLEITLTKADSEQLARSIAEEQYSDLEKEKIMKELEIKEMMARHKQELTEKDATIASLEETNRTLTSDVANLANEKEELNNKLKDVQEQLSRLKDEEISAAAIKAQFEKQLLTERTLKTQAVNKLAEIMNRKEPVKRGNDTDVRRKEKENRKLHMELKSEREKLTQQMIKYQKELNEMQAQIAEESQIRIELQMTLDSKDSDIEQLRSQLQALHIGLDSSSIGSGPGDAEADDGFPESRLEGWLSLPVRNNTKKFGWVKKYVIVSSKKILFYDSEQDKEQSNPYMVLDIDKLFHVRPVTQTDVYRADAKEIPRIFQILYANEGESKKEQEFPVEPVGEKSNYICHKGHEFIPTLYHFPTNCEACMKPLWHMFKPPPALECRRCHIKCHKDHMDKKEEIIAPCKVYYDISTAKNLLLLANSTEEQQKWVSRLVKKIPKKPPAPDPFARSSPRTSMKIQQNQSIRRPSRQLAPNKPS
ROCK1, sequence (Q13464 whole entry): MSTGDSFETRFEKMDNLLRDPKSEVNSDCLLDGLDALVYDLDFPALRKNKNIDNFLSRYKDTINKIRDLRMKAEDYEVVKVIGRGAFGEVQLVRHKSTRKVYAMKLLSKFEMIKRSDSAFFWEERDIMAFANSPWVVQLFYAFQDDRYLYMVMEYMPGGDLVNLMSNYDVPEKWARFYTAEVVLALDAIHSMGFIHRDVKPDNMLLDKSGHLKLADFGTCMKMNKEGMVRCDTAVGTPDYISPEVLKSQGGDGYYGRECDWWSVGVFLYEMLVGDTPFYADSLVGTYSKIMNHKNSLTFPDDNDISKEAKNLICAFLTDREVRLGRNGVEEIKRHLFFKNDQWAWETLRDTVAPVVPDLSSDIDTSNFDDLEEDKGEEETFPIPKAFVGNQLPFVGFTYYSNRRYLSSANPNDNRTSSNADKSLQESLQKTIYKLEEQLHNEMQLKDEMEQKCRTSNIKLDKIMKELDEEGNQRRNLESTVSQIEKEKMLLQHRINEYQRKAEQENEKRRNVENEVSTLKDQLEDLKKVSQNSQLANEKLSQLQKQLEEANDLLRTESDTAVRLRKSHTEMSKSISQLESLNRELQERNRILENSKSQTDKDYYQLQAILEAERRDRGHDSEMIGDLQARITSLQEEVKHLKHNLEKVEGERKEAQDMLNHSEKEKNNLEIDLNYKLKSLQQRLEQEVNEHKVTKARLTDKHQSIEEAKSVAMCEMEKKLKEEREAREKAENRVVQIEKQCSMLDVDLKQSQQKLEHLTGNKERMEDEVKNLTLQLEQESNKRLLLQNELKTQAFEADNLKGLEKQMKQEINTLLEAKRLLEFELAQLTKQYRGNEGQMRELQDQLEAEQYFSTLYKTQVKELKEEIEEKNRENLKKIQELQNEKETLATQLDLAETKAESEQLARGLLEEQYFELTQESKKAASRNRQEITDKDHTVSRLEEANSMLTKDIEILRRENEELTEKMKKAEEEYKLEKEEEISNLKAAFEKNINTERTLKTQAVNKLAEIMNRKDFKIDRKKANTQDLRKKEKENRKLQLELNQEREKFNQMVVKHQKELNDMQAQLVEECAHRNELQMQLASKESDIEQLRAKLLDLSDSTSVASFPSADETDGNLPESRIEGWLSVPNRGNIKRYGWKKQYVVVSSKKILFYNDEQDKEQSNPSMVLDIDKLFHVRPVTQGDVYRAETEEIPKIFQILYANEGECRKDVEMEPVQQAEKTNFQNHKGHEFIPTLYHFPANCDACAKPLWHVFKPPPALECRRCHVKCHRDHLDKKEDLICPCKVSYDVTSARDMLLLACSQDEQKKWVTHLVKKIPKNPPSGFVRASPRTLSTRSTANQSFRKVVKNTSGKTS

One may read the inhibition as the drop in the measured response relative to a control, in per cent. Regarding `O=C1N/C(=N\CCc2ccccc2)S/C1=C/c1c[nH]c2ncccc12` [DJ4], the G2/M cell population in the assay with A549 lung cancer cells (2.5 µM) was determined as 31%; in the assay on A549 lung cancer cells (5 µM), 42%; in the assay with A549 lung cancer cells (10 µM) it was 45%. Further, the inhibition at 10 µM at ROCK1 and at ROCK2 was over 98% in each case.
